Laboratory results from patent US20250263370A1 (Tay Therapeutics Limited, priority 2022, published 2025).
Values joined by “and” are separate entries in the source; they are usually repeats but may differ in a detail not shown here. Equal entries are not always repeated. “Also recorded” adds a separate entry of the source.

Tested on: collagen-induced arthritis
Experiment: Collagen-induced arthritis (CIA) model in rats: body weight, paw volume, clinical scores, clinical observations; for Average detailed clinical score, left hind limb: key of the grades not given here; for Average detailed clinical score, right hind limb: key of the grades not given here; for Detailed Clinical Scores, left forelimb: key of the grades not given here; for Detailed Clinical Scores, left hind limb: key of the grades not given here; for Detailed Clinical Scores, right forelimb: key of the grades not given here; for Detailed Clinical Scores, right hind limb: key of the grades not given here; for Detailed Clinical Scores, score: key of the grades not given here; for Mean overall clinical score ± SD: key of the grades not given here; for Overall clinical score: key of the grades not given here
Conditions: for Mean animal paw volume ± SD: group mean; for Overall clinical score: individual animals #1-8; for Detailed Clinical Scores, left forelimb / Detailed Clinical Scores, left hind limb / Detailed Clinical Scores, right forelimb / Detailed Clinical Scores, right hind limb / Detailed Clinical Scores, score: individual animals ID 1-8
Method: Prior to be randomly placed in treatment groups, animals were weighed, and paw volume was measured. Once randomly assigned to treatment groups, on Day 0, animals in groups 2-9 were immunized by subcutaneous injection at the base of the tail.
The immunization comprised 100 μL of the CFA+Collagen emulsion (prepared according to the method in Experimental Method A). Animals in group one received no immunization. Seven days after the first injection, animals in groups 2-9 received a booster immunization comprising 200 μL of the IFA+Collagen emulsion (prepared according to the method in Experimental Method A).
Starting on Day 0, animals in group 1 and 2 were administered daily doses of the vehicle per os (P.O.) for 21 days. […] The twice daily doses for animals in groups 4-9 were 8 hours apart (e.g., the first dose at 8:00 AM and the second dose at 4:00 PM).
Body weight of all animals was recorded daily for the 21-day period. Blind clinical scores on all four limbs were conducted for all animals in the study. Animals were assessed prior to receiving their first dose of the compound or control, and scores for each limb were combined to a total daily score for each animal. Clinical score assessments were performed on Day 0, 6, 12, 13, 14, 15, 18, 19, and 21 (for a total of 9 daily scores).
Paw volume was recorded for each animal on Day 0, 6, 12, 13, 14, 15, 18, 19, and 21 (for a total of 9 measurements). To measure paw volume, animals were gently held with one hand while the hind paw was placed into a plethysmometer with the other hand. Lipid displacement by the paw was recorded and used to represent paw volume.
All data measured and recorded was analyzed using SPSS 16.0 software. Groups were compared using one-way ANOVA and significance was set at p<0.05.

CNC(=O)c1[nH]c(C(=O)NC2CCC2)cc1O[C@@H](C)c1ccccc1 (stereo in doubt) [Example 101, N^5-cyclobutyl-N^2-methyl-3-(1-phenylethoxy)-1H-pyrrole-2,5-dicarboxamide]
Animal paw volume Day 0 L (CIA rats, 30 mg/kg, Day 0, left paw, individual animals): 1.33 mL (2×) and 1.32 mL (3×) and 1.31 mL and 1.30 mL and 1.34 mL
Average animal paw volume percent change (CIA rats, 30 mg/kg, Day 0, right hind paw (R)): 0.00%
Animal paw volume Day 0 R (CIA rats, 30 mg/kg, Day 0, right paw, individual animals): 1.34 mL (2×) and 1.31 mL (2×) and 1.33 mL and 1.30 mL and 1.32 mL (2×)
Average animal paw volume percent change (CIA rats, 30 mg/kg, Day 6, left hind paw (L)): 0.76%
Animal paw volume Day 6 L (CIA rats, 30 mg/kg, Day 6, left paw, individual animals): 1.35 mL and 1.33 mL (3×) and 1.32 mL (3×) and 1.34 mL
Average animal paw volume percent change (CIA rats, 30 mg/kg, Day 6, right hind paw (R)): 0.75%
Animal paw volume Day 6 R (CIA rats, 30 mg/kg, Day 6, right paw, individual animals): 1.36 mL and 1.32 mL (2×) and 1.31 mL and 1.34 mL (2×) and 1.33 mL (2×)
Average animal paw volume percent change (CIA rats, 30 mg/kg, Day 12, left hind paw (L)): 1.33%
Animal paw volume Day 12 L (CIA rats, 30 mg/kg, Day 12, left paw, individual animals): 1.36 mL (2×) and 1.34 mL (2×) and 1.31 mL and 1.33 mL and 1.32 mL and 1.35 mL
Average animal paw volume percent change (CIA rats, 30 mg/kg, Day 12, right hind paw (R)): 2.87%
Animal paw volume Day 12 R (CIA rats, 30 mg/kg, Day 12, right paw, individual animals): 1.50 mL and 1.36 mL and 1.33 mL (4×) and 1.34 mL and 1.35 mL
Average animal paw volume percent change (CIA rats, 30 mg/kg, Day 13, left hind paw (L)): 2.76%
Animal paw volume Day 13 L (CIA rats, 30 mg/kg, Day 13, left paw, individual animals): 1.40 mL and 1.36 mL (2×) and 1.33 mL and 1.34 mL (2×) and 1.38 mL and 1.35 mL
Average animal paw volume percent change (CIA rats, 30 mg/kg, Day 13, right hind paw (R)): 4.15%
Animal paw volume Day 13 R (CIA rats, 30 mg/kg, Day 13, right paw, individual animals): 1.54 mL and 1.38 mL and 1.34 mL (2×) and 1.36 mL (3×) and 1.33 mL
Average animal paw volume percent change (CIA rats, 30 mg/kg, Day 14, left hind paw (L)): 2.39%
Animal paw volume Day 14 L (CIA rats, 30 mg/kg, Day 14, left paw, individual animals): 1.40 mL and 1.35 mL (2×) and 1.32 mL and 1.37 mL (2×) and 1.36 mL and 1.30 mL
Average animal paw volume percent change (CIA rats, 30 mg/kg, Day 14, right hind paw (R)): 3.83%
Animal paw volume Day 14 R (CIA rats, 30 mg/kg, Day 14, right paw, individual animals): 1.53 mL and 1.37 mL and 1.35 mL (2×) and 1.36 mL (3×) and 1.28 mL
Average animal paw volume percent change (CIA rats, 30 mg/kg, Day 15, left hind paw (L)): 10.45%
Animal paw volume Day 15 L (CIA rats, 30 mg/kg, Day 15, left paw, individual animals): 1.46 mL and 1.79 mL and 1.57 mL and 1.38 mL (2×) and 1.34 mL and 1.44 mL and 1.31 mL
Average animal paw volume percent change (CIA rats, 30 mg/kg, Day 15, right hind paw (R)): 12.13%
Animal paw volume Day 15 R (CIA rats, 30 mg/kg, Day 15, right paw, individual animals): 1.52 mL and 1.37 mL and 1.68 mL and 1.38 mL and 1.49 mL and 1.36 mL and 1.73 mL and 1.30 mL
Average animal paw volume percent change (CIA rats, 30 mg/kg, Day 18, left hind paw (L)): 29.38%
Animal paw volume Day 18 L (CIA rats, 30 mg/kg, Day 18, left paw, individual animals): 1.46 mL and 2.05 mL and 1.90 mL and 1.47 mL (2×) and 1.68 mL and 1.93 mL and 1.70 mL
Average animal paw volume percent change (CIA rats, 30 mg/kg, Day 18, right hind paw (R)): 23.54%
Animal paw volume Day 18 R (CIA rats, 30 mg/kg, Day 18, right paw, individual animals): 1.51 mL and 1.87 mL and 1.86 mL and 1.37 mL and 1.48 mL and 1.32 mL and 1.95 mL and 1.68 mL
Average animal paw volume percent change (CIA rats, 30 mg/kg, Day 19, left hind paw (L)): 33.52%
Animal paw volume Day 19 L (CIA rats, 30 mg/kg, Day 19, left paw, individual animals): 1.42 mL and 2.04 mL and 2.06 mL and 1.56 mL and 1.55 mL and 1.85 mL and 1.94 mL and 1.67 mL
Average animal paw volume percent change (CIA rats, 30 mg/kg, Day 19, right hind paw (R)): 32.36%
Animal paw volume Day 19 R (CIA rats, 30 mg/kg, Day 19, right paw, individual animals): 1.44 mL and 1.96 mL and 2.14 mL and 1.39 mL and 1.48 mL and 1.83 mL and 2.04 mL and 1.69 mL
Average animal paw volume percent change (CIA rats, 30 mg/kg, Day 21, left hind paw (L)): 37.92%
Animal paw volume Day 21 L (CIA rats, 30 mg/kg, Day 21, left paw, individual animals): 1.43 mL and 2.08 mL and 2.11 mL and 1.54 mL (2×) and 2.06 mL and 2.13 mL and 1.67 mL
Average animal paw volume percent change (CIA rats, 30 mg/kg, Day 21, right hind paw (R)): 36.08%
Animal paw volume Day 21 R (CIA rats, 30 mg/kg, Day 21, right paw, individual animals): 1.43 mL and 2.10 mL and 2.16 mL and 1.40 mL and 1.47 mL and 2.00 mL and 2.12 mL and 1.67 mL
overall effect on joint inflammation and clinical symptoms of CIA (CIA rats, 3, 10 and 30 mg/kg twice daily P.O. (groups 5-7)): ameliorated joint inflammation in a dose-dependent manner; also recorded: lower clinical scores; also recorded: dose-dependent effect in the amelioration of clinical symptoms associated with CIA; also recorded: function in a dose-dependent manner to limit and/or reduce the severity of CIA-related symptoms
Mean animal paw volume ± SD (Day 0, L paw, 3 mg/kg): 1.33 mL
Mean animal paw volume ± SD (Day 0, L paw, 10 mg/kg): 1.31 mL
Mean animal paw volume ± SD (Day 0, L paw, 30 mg/kg): 1.32 mL
Mean animal paw volume ± SD (Day 0, R paw, 3 mg/kg): 1.33 mL
Mean animal paw volume ± SD (Day 0, R paw, 10 mg/kg): 1.31 mL
Mean animal paw volume ± SD (Day 0, R paw, 30 mg/kg): 1.32 mL
Average detailed clinical score, left forelimb (Day 0, CIA rats, 3 mg/kg): 0.00
Average detailed clinical score, left hind limb (Day 0, CIA rats, 3 mg/kg): 0.00
Average detailed clinical score, right forelimb (Day 0, CIA rats, 3 mg/kg): 0.00
Average detailed clinical score, right hind limb (Day 0, CIA rats, 3 mg/kg): 0.00
Average detailed clinical score, score (Day 0, CIA rats, 3 mg/kg): 0.00
Mean overall clinical score ± SD (Day 0, CIA rats, 3 mg/kg): 0 ± 0
Overall clinical score (Day 0, CIA rats, 3 mg/kg): 0
Average detailed clinical score, left forelimb (Day 0, CIA rats, 10 mg/kg): 0.00
Average detailed clinical score, left hind limb (Day 0, CIA rats, 10 mg/kg): 0.00
Average detailed clinical score, right forelimb (Day 0, CIA rats, 10 mg/kg): 0.00
Average detailed clinical score, right hind limb (Day 0, CIA rats, 10 mg/kg): 0.00
Average detailed clinical score, score (Day 0, CIA rats, 10 mg/kg): 0.00
Mean overall clinical score ± SD (Day 0, CIA rats, 10 mg/kg): 0 ± 0
Overall clinical score (Day 0, CIA rats, 10 mg/kg): 0
Average detailed clinical score, left forelimb (Day 0, CIA rats, 30 mg/kg): 0.00
Average detailed clinical score, left hind limb (Day 0, CIA rats, 30 mg/kg): 0.00
Average detailed clinical score, right forelimb (Day 0, CIA rats, 30 mg/kg): 0.00
Average detailed clinical score, right hind limb (Day 0, CIA rats, 30 mg/kg): 0.00
Average detailed clinical score, score (Day 0, CIA rats, 30 mg/kg): 0.00
Mean overall clinical score ± SD (Day 0, CIA rats, 30 mg/kg): 0 ± 0
Mean animal paw volume ± SD (Day 6, L paw, 3 mg/kg): 1.34 mL
Mean animal paw volume ± SD (Day 6, L paw, 10 mg/kg): 1.32 mL
Mean animal paw volume ± SD (Day 6, L paw, 30 mg/kg): 1.33 mL
Mean animal paw volume ± SD (Day 6, R paw, 3 mg/kg): 1.35 mL
Mean animal paw volume ± SD (Day 6, R paw, 10 mg/kg): 1.32 mL
Mean animal paw volume ± SD (Day 6, R paw, 30 mg/kg): 1.33 mL
Average detailed clinical score, left forelimb (Day 6, CIA rats, 3 mg/kg): 0.00
Average detailed clinical score, left hind limb (Day 6, CIA rats, 3 mg/kg): 0.00
Average detailed clinical score, right forelimb (Day 6, CIA rats, 3 mg/kg): 0.00
Average detailed clinical score, right hind limb (Day 6, CIA rats, 3 mg/kg): 0.00
Average detailed clinical score, score (Day 6, CIA rats, 3 mg/kg): 0.00
Mean overall clinical score ± SD (Day 6, CIA rats, 3 mg/kg): 0 ± 0
Overall clinical score (Day 6, CIA rats, 3 mg/kg): 0
Average detailed clinical score, left forelimb (Day 6, CIA rats, 10 mg/kg): 0.00
Average detailed clinical score, left hind limb (Day 6, CIA rats, 10 mg/kg): 0.00
Average detailed clinical score, right forelimb (Day 6, CIA rats, 10 mg/kg): 0.00
Average detailed clinical score, right hind limb (Day 6, CIA rats, 10 mg/kg): 0.00
Average detailed clinical score, score (Day 6, CIA rats, 10 mg/kg): 0.00
Mean overall clinical score ± SD (Day 6, CIA rats, 10 mg/kg): 0 ± 0
Overall clinical score (Day 6, CIA rats, 10 mg/kg): 0
Average detailed clinical score, left forelimb (Day 6, CIA rats, 30 mg/kg): 0.00
Average detailed clinical score, left hind limb (Day 6, CIA rats, 30 mg/kg): 0.00
Average detailed clinical score, right forelimb (Day 6, CIA rats, 30 mg/kg): 0.00
Average detailed clinical score, right hind limb (Day 6, CIA rats, 30 mg/kg): 0.00
Average detailed clinical score, score (Day 6, CIA rats, 30 mg/kg): 0.00
Mean overall clinical score ± SD (Day 6, CIA rats, 30 mg/kg): 0 ± 0
Mean animal paw volume ± SD (Day 12, L paw, 3 mg/kg): 1.41 mL
Mean animal paw volume ± SD (Day 12, L paw, 10 mg/kg): 1.41 mL
Mean animal paw volume ± SD (Day 12, L paw, 30 mg/kg): 1.33 mL
Mean animal paw volume ± SD (Day 12, R paw, 3 mg/kg): 1.40 mL
Mean animal paw volume ± SD (Day 12, R paw, 10 mg/kg): 1.41 mL
Mean animal paw volume ± SD (Day 12, R paw, 30 mg/kg): 1.36 mL
Detailed Clinical Scores, left forelimb (Day 12, 3 mg/kg, CIA rats): 0
Detailed Clinical Scores, left hind limb (Day 12, 3 mg/kg, CIA rats): 0 (7×) and 1
Detailed Clinical Scores, right forelimb (Day 12, 3 mg/kg, CIA rats): 0 (6×) and 1 (2×)
Detailed Clinical Scores, right hind limb (Day 12, 3 mg/kg, CIA rats): 0
Detailed Clinical Scores, score (Day 12, 3 mg/kg, CIA rats): 0 (5×) and 1 (3×)
Detailed Clinical Scores, left forelimb (Day 12, 10 mg/kg, CIA rats): 0
Detailed Clinical Scores, left hind limb (Day 12, 10 mg/kg, CIA rats): 1 (2×) and 0 (6×)
Detailed Clinical Scores, right forelimb (Day 12, 10 mg/kg, CIA rats): 0
Detailed Clinical Scores, right hind limb (Day 12, 10 mg/kg, CIA rats): 0 (7×) and 2
Detailed Clinical Scores, score (Day 12, 10 mg/kg, CIA rats): 1 (2×) and 0 (5×) and 2
Detailed Clinical Scores, left forelimb (Day 12, 30 mg/kg, CIA rats): 0
Detailed Clinical Scores, left hind limb (Day 12, 30 mg/kg, CIA rats): 0
Detailed Clinical Scores, right forelimb (Day 12, 30 mg/kg, CIA rats): 0
Detailed Clinical Scores, right hind limb (Day 12, 30 mg/kg, CIA rats): 1 and 0 (7×)
Detailed Clinical Scores, score (Day 12, 30 mg/kg, CIA rats): 1 and 0 (7×)
Average detailed clinical score, left forelimb (Day 12, CIA rats, 3 mg/kg): 0.00
Average detailed clinical score, left hind limb (Day 12, CIA rats, 3 mg/kg): 0.13
Average detailed clinical score, right forelimb (Day 12, CIA rats, 3 mg/kg): 0.25
Average detailed clinical score, right hind limb (Day 12, CIA rats, 3 mg/kg): 0.00
Average detailed clinical score, score (Day 12, CIA rats, 3 mg/kg): 0.38
Mean overall clinical score ± SD (Day 12, CIA rats, 3 mg/kg): 0 ± 1
Overall clinical score (Day 12, CIA rats, 3 mg/kg): 0 (5×) and 1 (3×)
Average detailed clinical score, left forelimb (Day 12, CIA rats, 10 mg/kg): 0.00
Average detailed clinical score, left hind limb (Day 12, CIA rats, 10 mg/kg): 0.25
Average detailed clinical score, right forelimb (Day 12, CIA rats, 10 mg/kg): 0.00
